# Experimental data taken from US6169104A, “Di-aryl ethers and their derivatives as anti-cancer agents” (Large Scale Biology Corporation, priority 1998, dated 2001).
# Tests used:
# Type in all cases: cell-based
# [1] = test system: A549 (non-small cell lung); experiment: In vitro cytotoxicity screen, alamar Blue assay; conditions: Homo sapiens, 168 h; A549; 7 days post exposure; read-out: IC50
# Experimental: (§1) Human tumor cell lines were exposed continuously to varying concentrations of test agents, i.e., BTO-956, BTO-964, BTO966 and BTO-967) and the viability of the cells was measured at set time points (1, 3, and 7 days) using the alamar Blue™ assay. […] This fluorescence can be measured with a fluorimeter, whereby the signal is directly proportional to cell number.
# (§2) Various tumor cell lines of human origin representing a wide diversity of cancer pheno- and genotypes were exposed in vitro to the agents to evaluate the drug's effective range. Tumor lines screened included MDA MB 231 (breast), MCF-7 (breast), MDA MB 468 (breast), Siha (squamous cell carcinoma), A549 (non-small cell lung), HL-60 (leukemia), Ovcar-3 (ovarian). The test agents were prepared in serial dilutions from 10 mM stock solutions in DMSO yielding a 66-fold dose range of 20 μM, 10 μM, 3 μM, 1 μM and 0.3 μM concentrations. In each case, cells were maintained at 37° C. under 5 percent CO2 in air. All cell lines were incubated in Dulbecco's modified Eagle medium (DMEM) supplemented with 10% heat-inactivated fetal bovine serum and graded doses of BTO-956, 964, 966, or 967. 5-Fluorouracil (5-FU) was included as a positive control in experiments with two of the cell lines. The experiments were conducted in 96-well tissue culture plates (Falcon) with an initial seeding density of 1000 cells per well in 250 μl aliquots. The next day, medium was replaced with 100 μl of drug dilutions in triplicate.
# (§3) After a 7 day exposure to the various agents, the alamarBlue dye was diluted to 20% in DMEM, and 100 μl was added to each well. The cells were incubated for 8 hours until obvious color changes indicated sufficient amounts of reduced dye for quantitation. Relative cell number was evaluated by florimetry on a Millipore 2300 CytoFluor fluorescence measurement system. Measurements were taken directly from 96-well plates after excitation at 560 nm with concomitant emission at 590 nm.
# [2] = test system: MCF-7 (breast); experiment: In vitro cytotoxicity screen, alamar Blue assay; conditions: Homo sapiens, MCF7, 168 h, 7 days post exposure
# Experimental: as §1, §2, §3
# [3] = test system: MDA MB 231 (breast); experiment: In vitro cytotoxicity screen, alamar Blue assay; conditions: Homo sapiens, 168 h; MDA MB 231; 7 days post exposure; read-out: IC50
# Experimental: as §1, §2, §3
# [4] = test system: MDA MB 468 (breast); experiment: In vitro cytotoxicity screen, alamar Blue assay; conditions: Homo sapiens, 168 h, 7 days post exposure
# Experimental: as §1, §2, §3
# [5] = test system: Ovcar-3 (ovarian); experiment: In vitro cytotoxicity screen, alamar Blue assay; conditions: Homo sapiens, 168 h, 7 days post exposure
# Experimental: as §1, §2, §3
# [6] = test system: Siha (squamous cell carcinoma); experiment: In vitro cytotoxicity screen, alamar Blue assay; conditions: Homo sapiens, 168 h, 7 days post exposure
# Experimental: as §1, §2, §3
# [7] = test system: Human leukemia (HL60) cells; experiment: In vitro metabolism in human leukemia cells with and without rat liver S9; conditions: for effect of metabolism by S9 on activity: 4 hr incubation with vs without rat liver S9, cells counted 3 days later (FIG. 2)
# Experimental: FIG. 2 illustrates the in vitro metabolism of BTO-956, 964, 966, and 967 in human leukemia cells. In this experiments, human leukemia cells (HL60) were incubated for 4 hours in the presence of BTO-956, BTO-964, BTO-966 or BTO-967, with (closed symbols) and without (open symbols) rat liver microsome fraction S9. Following the 4 hr exposure to drug and S9, the cells were rinsed and replated at a density of 2×10^5 cells per ml, and counted 3 days later.
# To test for either of these possibilities, the compounds, i.e., BTO-956, BTO-964, BTO-966 and BTO-967, were incubated with a microsomal enzyme fraction, referred to as S9.
# Human leukemia (HL60) cells were used to evaluate drug metabolism. Exposure to the test article was performed in the presence and absence of S9, prepared from the liver of adult male rats given a single intraperitoneal injection of Arachlor 1254 (500 mg/kg). The S9 consisted of the 9000×G supernatant of liver homogenized in 0.25 M sucrose-100 mM phosphate buffer (pH 7.4) (Molecular Toxicology, Inc.). Cofactors were 1 mM NADP and 5 mM sodium isocitrate. On the day of exposure, cultures of cells, with or without the metabolism mixture, were incubated for 4 hours in RPMI containing 5% FBS and graded doses of BTO956, 964, 966, or 967. The test agents were prepared in serial dilutions from 10 mM stock solutions in DMSO yielding a dose range 100 μM, 50 μM, 25 μM, 10 μM and 5 μM concentrations and a final DMSO concentration of 1%. In each case, cells were maintained at 37° C. under 5 percent CO2 in air. The experiments were conducted in 6-well tissue culture plates (Falcon) with an initial seeding density of 2×10^6 cells per well in 2 ml aliquots. The test compounds were added immediately to the medium in duplicate cultures. Treatment solution was removed by a series of low-speed centrifugations to pellet the cells, followed by removal of the supernatant and resuspension of cells in fresh RPMI containing 10% FBS.
SMILES,IC50 [1] [nM],IC50 [2] [nM],IC50 [3] [nM],IC50 [4] [nM],IC50 [5] [nM],IC50 [6] [nM],toxicity to HL60 cells ([7]; 4 hr exposure (FIG. 2)),effect of metabolism by S9 on activity [7]
"COc1ccc(Oc2c(I)cc(C=O)cc2I)cc1 [BTO-964, 3,5-Diiodo-4-(4'-methoxyphenoxy)benzadehyde]",> 20000,2400,2000,4000,1800,17000,more toxic to HL60 cells than is BTO-956,more resistant to metabolic degradation
"COC(=S)c1cc(I)c(Oc2ccc(OC)cc2)c(I)c1 [BTO-967, methyl 3,5-diiodo-4-(4'-methoxyphenoxy)thiobenzoate]",5500,1000,2000,1500,800,20000,,activated to more cytotoxic products
